Laboratory results as given in the NIST ThermoML archive (doi:10.1007/s10765-012-1373-z).

Conditions: Liquid; for mass density: Buoyancy - hydrostatic balance; for viscosity: Falling or rolling sphere viscometry

CCCCCCC [heptane]
Conditions | mass density [kg/m3] | viscosity [mPa·s]
298.15 K, 98 kPa | 679.99 | 0.396
298.15 K, 24510 kPa | 702.85 | 0.4923
298.15 K, 49030 kPa | 718.61 | 0.602
298.15 K, 98060 kPa | 741.52 | 0.8489
298.15 K, 147100 kPa | 760.47 | 1.137
298.15 K, 196130 kPa | 780.16 | 1.493
298.15 K, 245160 kPa | 792.15 | 1.91
303.15 K, 98 kPa | 674.98 | 0.373
303.15 K, 24510 kPa | 697.11 | 0.4737
303.15 K, 49030 kPa | 713.79 | 0.5696
303.15 K, 98060 kPa | 739.05 | 0.8037
303.15 K, 147100 kPa | 759.49 | 1.071
303.15 K, 196130 kPa | 777.85 | 1.389
303.15 K, 245160 kPa | 789.56 | 1.744
323.11 K, 49030 kPa | 701.18 | 0.4816
323.13 K, 24510 kPa | 680.94 | 0.3966
323.2 K, 98060 kPa | 731.08 | 0.6613
323.2 K, 147100 kPa | 749.97 | 0.87
323.21 K, 196130 kPa | 768.38 | 1.112
323.25 K, 98 kPa | 659.16 | 0.3107
323.25 K, 245160 kPa | 783.33 | 1.378
362.8 K, 147100 kPa | 731.67 | 0.6488
362.83 K, 98060 kPa | 709.5 | 0.4956
362.85 K, 49030 kPa | 675.9 | 0.3626
362.87 K, 196130 kPa | 752.22 | 0.8089
362.92 K, 98 kPa | 622.63 | 0.2146
362.98 K, 245160 kPa | 769.76 | 0.9926
363.07 K, 24510 kPa | 654.31 | 0.2937
391.93 K, 147100 kPa | 717.73 | 0.531
392 K, 196130 kPa | 739.92 | 0.6621
392 K, 245160 kPa | 759.27 | 0.8047
392.04 K, 98060 kPa | 696.22 | 0.4119
393.01 K, 24510 kPa | 634.69 | 0.2366
393.14 K, 49030 kPa | 657.93 | 0.2965
422.17 K, 196130 kPa | 729 | 0.5591
422.24 K, 98060 kPa | 679.62 | 0.3479
422.26 K, 147100 kPa | 704.75 | 0.4464
422.58 K, 24510 kPa | 611.28 | 0.1951
422.6 K, 49030 kPa | 638.89 | 0.2476
423.04 K, 245160 kPa | 748.46 | 0.6699
452.91 K, 245160 kPa | 734.45 | 0.577
453.04 K, 196130 kPa | 716.18 | 0.4784
453.1 K, 147100 kPa | 689.71 | 0.3883
453.16 K, 98060 kPa | 666.38 | 0.3007
453.24 K, 49030 kPa | 621.56 | 0.2134
453.4 K, 24510 kPa | 589.05 | 0.1668
470.1 K, 49030 kPa | 611.78 | 0.2021
470.19 K, 24510 kPa | 574.55 | 0.1568
470.19 K, 98060 kPa | 658.7 | 0.2858
470.19 K, 147100 kPa | 685.13 | 0.3672
470.57 K, 196130 kPa | 709.79 | 0.4549
470.61 K, 245160 kPa | 729.17 | 0.5475
